Activity calls are given as the source filed them. No cut-off for these calls is given here.
Assays:
Caenorhabditis elegans [1] = assay: Toxicity in L4 larvae of Caenorhabditis elegans at 800 uM after 8 hrs; format: organism-based; details: in vivo
Caenorhabditis elegans [2] = assay: Increase of lifespan of L4 larvae of Caenorhabditis elegans assessed as lifespan increasing concentration after 8 hrs; format: functional
Caenorhabditis elegans [3] = assay: […] assessed as ascorbic acid equivalent of water soluble antioxidant metabolites at 100 uM by photochemiluminescence assay; format: functional, organism-based
Caenorhabditis elegans [4] = assay: Increase of lifespan of L4 larvae of Caenorhabditis elegans at 35 degC after 8 hrs; format: functional, organism-based
Caenorhabditis elegans [5] = assay: Reduction of initial reproduction rate in Caenorhabditis elegans assessed as first egg deposition at 100 uM after 85 hrs; format: functional, organism-based
Caenorhabditis elegans [6] = assay: […] assessed as trolox equivalent of lipid soluble antioxidant metabolites at 100 uM by photochemiluminescence assay; format: functional, organism-based
Caenorhabditis elegans [7] = assay: Reduction of frequency of pharyngeal pumping in Caenorhabditis elegans at 100 uM on 3rd to 9th day of adulthood; format: functional, organism-based
Caenorhabditis elegans [8] = assay: Increase of lifespan of L4 larvae of Caenorhabditis elegans after 8 hrs in presence of H2O2; format: functional, organism-based
Caenorhabditis elegans [9] = assay: Increase of lifespan of L4 larvae of Caenorhabditis elegans after 8 hrs; format: functional, organism-based
Caenorhabditis elegans [10] = assay: Reduction of body length of L4 larvae of Caenorhabditis elegans at 100 uM by microscopic analysis; format: functional, organism-based
Caenorhabditis elegans [11] = assay: Reduction of triglyceride level in Caenorhabditis elegans at 100 uM; format: functional, organism-based
Caenorhabditis elegans [12] = assay: Increase of mean lifespan of L4 larvae of wild type Caenorhabditis elegans at 100 uM after 8 hrs; format: functional
Caenorhabditis elegans [13] = assay: Increase of mean lifespan of L4 larvae of Caenorhabditis elegans harboring mev-1 (kn1) mutant at 100 uM after 8 hrs; format: functional
Caenorhabditis elegans [14] = assay: Reduction of frequency of pharyngeal pumping in Caenorhabditis elegans at 50 uM on 3rd to 9th day of adulthood; format: functional, organism-based
Caenorhabditis elegans [15] = assay: Increase of lifespan of L4 larvae of Caenorhabditis elegans at 50 uM in presence of heat killed bacteria; format: functional, organism-based
Caenorhabditis elegans [16] = assay: Reduction of initial reproduction rate in Caenorhabditis elegans assessed as first egg deposition at 50 uM after 85 hrs; format: functional, organism-based
Caenorhabditis elegans [17] = assay: Reduction of body length of L4 larvae of Caenorhabditis elegans at 50 uM by microscopic analysis; format: functional, organism-based
Caenorhabditis elegans [18] = assay: […] assessed as ascorbic acid equivalent of water soluble antioxidant metabolites at 50 uM by photochemiluminescence assay; format: functional, organism-based
Caenorhabditis elegans [19] = assay: Increase of frequency of pharyngeal pumping in Caenorhabditis elegans at 200 uM on 3rd to 9th day of adulthood; format: functional, organism-based
Caenorhabditis elegans [20] = assay: Reduction of frequency of pharyngeal pumping in Caenorhabditis elegans at 200 uM on 3rd to 9th day of adulthood; format: functional, organism-based
Caenorhabditis elegans [21] = assay: Reduction of initial reproduction rate in Caenorhabditis elegans assessed as first egg deposition at 200 uM after 85 hrs; format: functional, organism-based
Caenorhabditis elegans [22] = assay: Increase of lifespan of Caenorhabditis elegans assessed as ascorbic acid equivalent of water soluble antioxidant metabolites at 200 uM by photochemiluminescence assay; format: functional, organism-based
Caenorhabditis elegans [23] = assay: Reduction of body length of L4 larvae of Caenorhabditis elegans at 200 uM by microscopic analysis; format: functional, organism-based
Caenorhabditis elegans [24] = assay: Increase of lifespan of Caenorhabditis elegans assessed as trolox equivalent of lipid soluble antioxidant metabolites at 200 uM by photochemiluminescence assay; format: functional, organism-based
Caenorhabditis elegans [25] = assay: […] assessed as trolox equivalent of lipid soluble antioxidant metabolites at 300 uM by photochemiluminescence assay; format: functional, organism-based
Caenorhabditis elegans [26] = assay: Increase of median lifespan of L4 larvae of Caenorhabditis elegans harboring eat-2 (ad465) at 300 uM after 8 hrs; format: functional
Caenorhabditis elegans [27] = assay: Increase of lifespan of L4 larvae of Caenorhabditis elegans at 300 uM after 8 hrs in presence of H2O2; format: functional, organism-based
Caenorhabditis elegans [28] = assay: Increase of body length of L4 larvae of Caenorhabditis elegans at 300 uM by microscopic analysis; format: functional, organism-based
Caenorhabditis elegans [29] = assay: Reduction of frequency of pharyngeal pumping in Caenorhabditis elegans at 300 uM on 3rd to 9th day of adulthood; format: functional, organism-based
Caenorhabditis elegans [30] = assay: Increase of lifespan of L4 larvae of Caenorhabditis elegans at 300 uM at 35 degC after 8 hrs; format: functional, organism-based
Caenorhabditis elegans [31] = assay: Increase of frequency of pharyngeal pumping in Caenorhabditis elegans at 300 uM on 9th day of adulthood; format: functional, organism-based
Caenorhabditis elegans [32] = assay: […] assessed as ascorbic acid equivalent of water soluble antioxidant metabolites at 300 uM by photochemiluminescence assay; format: functional, organism-based
Caenorhabditis elegans [33] = assay: Reduction of initial reproduction rate in Caenorhabditis elegans assessed as first egg deposition at 300 uM after 85 hrs; format: functional, organism-based
Caenorhabditis elegans [34] = assay: Increase of mean lifespan of L4 larvae of Caenorhabditis elegans harboring eat-2 (ad465) at 300 uM after 8 hrs; format: functional
Caenorhabditis elegans [35] = assay: Increase of lifespan of L4 larvae of Caenorhabditis elegans at 300 uM in presence of heat killed bacteria; format: functional, organism-based

Oc1cc(O)c2c(c1)O[C@H](c1ccc(O)c(O)c1)[C@@H](O)C2 [CATECHIN]
Activity (Caenorhabditis elegans [1]): Non-toxic

O=C(OC[C@H]1O[C@@H](OC(=O)c2cc(O)c(O)c(OC(=O)c3cc(O)c(O)c(O)c3)c2)[C@H](OC(=O)c2cc(O)c(O)c(OC(=O)c3cc(O)c(O)c(O)c3)c2)[C@@H](OC(=O)c2cc(O)c(O)c(OC(=O)c3cc(O)c(O)c(O)c3)c2)[C@@H]1OC(=O)c1cc(O)c(O)c(OC(=O)c2cc(O)c(O)c(O)c2)c1)c1cc(O)c(O)c(OC(=O)c2cc(O)c(O)c(O)c2)c1 [TANNIC ACID]
Activity (Caenorhabditis elegans [2]): 100 µM | Activity (Caenorhabditis elegans [3]): Active | Activity (Caenorhabditis elegans [4]): Active | Activity (Caenorhabditis elegans [5]): Active | Activity (Caenorhabditis elegans [1]): Toxic | Activity (Caenorhabditis elegans [6]): Active | Activity (Caenorhabditis elegans [7]): inactive | Activity (Caenorhabditis elegans [8]): inactive | Activity (Caenorhabditis elegans [9]): Active | Activity (Caenorhabditis elegans [10]): Active | Activity (Caenorhabditis elegans [11]): Active | Activity (Caenorhabditis elegans [12]): 17.6% | Activity (Caenorhabditis elegans [13]): 3.2%

O=c1oc2c(O)c(O)cc3c(=O)oc4c(O)c(O)cc1c4c23 [ELLAGIC ACID]
Activity (Caenorhabditis elegans [2]): 50 µM | Activity (Caenorhabditis elegans [1]): Toxic | Activity (Caenorhabditis elegans [8]): inactive | Activity (Caenorhabditis elegans [14]): inactive | Activity (Caenorhabditis elegans [15]): Active | Activity (Caenorhabditis elegans [16]): Active | Activity (Caenorhabditis elegans [17]): Active | Activity (Caenorhabditis elegans [18]): Active

Oc1cc(O)c2c(c1)OC(c1ccc(O)c(O)c1)C(O)C2 (stereo not drawn) [CATECHIN]
Activity (Caenorhabditis elegans [2]): 200 µM | Activity (Caenorhabditis elegans [4]): Active | Activity (Caenorhabditis elegans [19]): Active | Activity (Caenorhabditis elegans [20]): inactive | Activity (Caenorhabditis elegans [8]): Active | Activity (Caenorhabditis elegans [9]): Active | Activity (Caenorhabditis elegans [21]): inactive | Activity (Caenorhabditis elegans [22]): inactive | Activity (Caenorhabditis elegans [23]): Active | Activity (Caenorhabditis elegans [24]): inactive

O=C(O)c1cc(O)c(O)c(O)c1 [GALLIC ACID]
Activity (Caenorhabditis elegans [25]): inactive | Activity (Caenorhabditis elegans [26]): 11% | Activity (Caenorhabditis elegans [27]): inactive | Activity (Caenorhabditis elegans [2]): 300 µM | Activity (Caenorhabditis elegans [4]): Active | Activity (Caenorhabditis elegans [28]): Active | Activity (Caenorhabditis elegans [1]): Non-toxic | Activity (Caenorhabditis elegans [8]): Active | Activity (Caenorhabditis elegans [29]): inactive | Activity (Caenorhabditis elegans [30]): inactive | Activity (Caenorhabditis elegans [31]): Active | Activity (Caenorhabditis elegans [9]): Active | Activity (Caenorhabditis elegans [32]): inactive | Activity (Caenorhabditis elegans [33]): Active | Activity (Caenorhabditis elegans [34]): 7% | Activity (Caenorhabditis elegans [35]): Active
